Test results published in patent publication US6465654B2, “Process for preparing 1-substituted, 2-substituted 1H-imidazo[4, 5-c]quinoline-4-amines” (3M Innovative Properties Company, priority 1991, dated 2002).

Assays:
interferon-α = assay: Interferon-α induction in human cells, PBM; format: cell-based; conditions: 24 hours
interferon = assay: Interferon induction in mice; format: in vivo; conditions: mouse serum
Method: One hour later blood samples are withdrawn from the first group. The samples are pooled then centrifuged. The serum is removed from the centrifuge tube, split into two portions, then placed in freezing vials and maintained at −70° C. until analysis. This procedure is repeated at 2 hours with the second group of mice and at 4 hours with the third group of mice. Samples are assayed as described above in connection with the analysis of interferon induction in human cells. The results are expressed in the table below as α/β reference units/mL based on the value obtained for a mouse MU-1-IF standard. Results are shown in the table below wherein results designated as “<” a certain number indicate that interferon was not detectable in amounts above the lower sensitivity level of the assay.

## 1-Butyl-2-methoxyethyl-1H-imidazo[4,5-c]quinolin-4-amine [Example 115]
interferon-α; dose concentration 0.01 μg/mL
  Interferon-α induction: 91 α Reference Units/mL
interferon-α; dose concentration 0.05 μg/mL
  Interferon-α induction: 96 α Reference Units/mL
interferon-α; dose concentration 0.10 μg/mL
  Interferon-α induction: 120 α Reference Units/mL
interferon-α; dose concentration 0.50 μg/mL
  Interferon-α induction: 190 α Reference Units/mL
interferon-α; dose concentration 1.0 μg/mL
  Interferon-α induction: 190 α Reference Units/mL
interferon-α; dose concentration 5.0 μg/mL
  Interferon-α induction: 240 α Reference Units/mL
interferon; oral 0.3 mg/kg, 1 hr
  Interferon induction in mice: ˜380 Reference Units/mL
interferon; oral 0.3 mg/kg, 2 hr
  Interferon induction in mice: 2500 Reference Units/mL
interferon; oral 0.3 mg/kg, 4 hr
  Interferon induction in mice: ˜360 Reference Units/mL
interferon; oral 1 mg/kg, 1 hr
  Interferon induction in mice: 1400 Reference Units/mL
interferon; oral 1 mg/kg, 2 hr
  Interferon induction in mice: 2900 Reference Units/mL
interferon; oral 1 mg/kg, 4 hr
  Interferon induction in mice: ˜310 Reference Units/mL
interferon; oral 3 mg/kg, 1 hr
  Interferon induction in mice: 2200 Reference Units/mL
interferon; oral 3 mg/kg, 2 hr
  Interferon induction in mice: 5300 Reference Units/mL
interferon; oral 3 mg/kg, 4 hr
  Interferon induction in mice: ˜310 Reference Units/mL
interferon; oral 10 mg/kg, 1 hr
  Interferon induction in mice: 5600 Reference Units/mL
interferon; oral 10 mg/kg, 2 hr
  Interferon induction in mice: 5300 Reference Units/mL
interferon; oral 10 mg/kg, 4 hr
  Interferon induction in mice: 870 Reference Units/mL

## 4-Amino-N-hydroxyethyl-N-methyl-1-phenylmethyl-1H-imidazo[4,5-c]quinoline-2-methanamine Hemihydrate [Example 30]
interferon-α; dose concentration 0.10 μg/mL
  Interferon-α induction: <4 α Reference Units/mL
interferon-α; dose concentration 0.50 μg/mL
  Interferon-α induction: <4 α Reference Units/mL
interferon-α; dose concentration 1.0 μg/mL
  Interferon-α induction: <4 α Reference Units/mL
interferon-α; dose concentration 5.0 μg/mL
  Interferon-α induction: 72 α Reference Units/mL
interferon; oral 0.3 mg/kg, 1 hr
  Interferon induction in mice: <120 Reference Units/mL
interferon; oral 0.3 mg/kg, 2 hr
  Interferon induction in mice: <120 Reference Units/mL
interferon; oral 0.3 mg/kg, 4 hr
  Interferon induction in mice: <120 Reference Units/mL
interferon; oral 1 mg/kg, 1 hr
  Interferon induction in mice: <120 Reference Units/mL
interferon; oral 1 mg/kg, 2 hr
  Interferon induction in mice: <120 Reference Units/mL
interferon; oral 1 mg/kg, 4 hr
  Interferon induction in mice: <120 Reference Units/mL
interferon; oral 3 mg/kg, 1 hr
  Interferon induction in mice: <120 Reference Units/mL
interferon; oral 3 mg/kg, 2 hr
  Interferon induction in mice: <120 Reference Units/mL
interferon; oral 3 mg/kg, 4 hr
  Interferon induction in mice: <120 Reference Units/mL
interferon; oral 10 mg/kg, 1 hr
  Interferon induction in mice: <120 Reference Units/mL
interferon; oral 10 mg/kg, 2 hr
  Interferon induction in mice: 600 Reference Units/mL
interferon; oral 10 mg/kg, 4 hr
  Interferon induction in mice: <120 Reference Units/mL

## 4-Amino-α-butyl-1-(2-methylpropyl)-1H-imidazo[4,5-c]quinoline-2-methanol Hemihydrate [Example 60]
interferon-α; dose concentration 0.10 μg/mL
  Interferon-α induction: 1700 α Reference Units/mL
interferon-α; dose concentration 0.50 μg/mL
  Interferon-α induction: 430 α Reference Units/mL
interferon-α; dose concentration 1.0 μg/mL
  Interferon-α induction: 570 α Reference Units/mL
interferon-α; dose concentration 5.0 μg/mL
  Interferon-α induction: 570 α Reference Units/mL
interferon; oral 0.3 mg/kg, 1 hr
  Interferon induction in mice: 120 Reference Units/mL
interferon; oral 0.3 mg/kg, 2 hr
  Interferon induction in mice: 870 Reference Units/mL
interferon; oral 0.3 mg/kg, 4 hr
  Interferon induction in mice: ≦56 Reference Units/mL
interferon; oral 1 mg/kg, 1 hr
  Interferon induction in mice: 290 Reference Units/mL
interferon; oral 1 mg/kg, 2 hr
  Interferon induction in mice: 1500 Reference Units/mL
interferon; oral 1 mg/kg, 4 hr
  Interferon induction in mice: 120 Reference Units/mL
interferon; oral 3 mg/kg, 1 hr
  Interferon induction in mice: 380 Reference Units/mL
interferon; oral 3 mg/kg, 2 hr
  Interferon induction in mice: 870 Reference Units/mL
interferon; oral 3 mg/kg, 4 hr
  Interferon induction in mice: 290 Reference Units/mL
interferon; oral 10 mg/kg, 1 hr
  Interferon induction in mice: 870 Reference Units/mL
interferon; oral 10 mg/kg, 2 hr
  Interferon induction in mice: 3400 Reference Units/mL
interferon; oral 10 mg/kg, 4 hr
  Interferon induction in mice: 1100 Reference Units/mL

## Nc1nc2ccccc2c2c1nc(CN1CCOCC1)n2Cc1ccccc1 [Example 29, 2-Morpholinomethyl-1-phenylmethyl-1H-imidazo-[4,5-c]quinolin-4-amine]
interferon-α; dose concentration 0.10 μg/mL
  Interferon-α induction: <5.4 α Reference Units/mL
interferon-α; dose concentration 0.50 μg/mL
  Interferon-α induction: 440 α Reference Units/mL
interferon-α; dose concentration 1.0 μg/mL
  Interferon-α induction: 1000 α Reference Units/mL
interferon-α; dose concentration 5.0 μg/mL
  Interferon-α induction: 580 α Reference Units/mL
interferon; oral 0.3 mg/kg, 1 hr
  Interferon induction in mice: <45 Reference Units/mL
interferon; oral 0.3 mg/kg, 2 hr
  Interferon induction in mice: <45 Reference Units/mL
interferon; oral 0.3 mg/kg, 4 hr
  Interferon induction in mice: <45 Reference Units/mL
interferon; oral 1 mg/kg, 1 hr
  Interferon induction in mice: <45 Reference Units/mL
interferon; oral 1 mg/kg, 2 hr
  Interferon induction in mice: <45 Reference Units/mL
interferon; oral 1 mg/kg, 4 hr
  Interferon induction in mice: <45 Reference Units/mL
interferon; oral 3 mg/kg, 1 hr
  Interferon induction in mice: <45 Reference Units/mL
interferon; oral 3 mg/kg, 2 hr
  Interferon induction in mice: <45 Reference Units/mL
interferon; oral 3 mg/kg, 4 hr
  Interferon induction in mice: <45 Reference Units/mL
interferon; oral 10 mg/kg, 1 hr
  Interferon induction in mice: <45 Reference Units/mL
interferon; oral 10 mg/kg, 2 hr
  Interferon induction in mice: <45 Reference Units/mL
interferon; oral 10 mg/kg, 4 hr
  Interferon induction in mice: <45 Reference Units/mL

## CC(C)Cn1c(C(O)c2ccc(Cl)cc2)nc2c(N)nc3ccccc3c21 (stereo not drawn) [Example 55, 4-Amino-α-(4-chlorophenyl)-1-(2-methylpropyl)-1H-imidazo[4,5-c]quinoline-2-methanol]
interferon-α; dose concentration 0.10 μg/mL
  Interferon-α induction: <4 α Reference Units/mL
interferon-α; dose concentration 0.50 μg/mL
  Interferon-α induction: 1500 α Reference Units/mL
interferon-α; dose concentration 1.0 μg/mL
  Interferon-α induction: 1500 α Reference Units/mL
interferon-α; dose concentration 5.0 μg/mL
  Interferon-α induction: 490 α Reference Units/mL

## CCCCC(c1nc2c(N)nc3ccccc3c2n1CC(C)C)N1CCOCC1 (centres unmarked) [Example 62, 2-[1-(1-Morpholino)pentyl]1-1-(2-methylpropyl)-1H-imidazo[4,5-c]quinolin-4-amine]
interferon-α; dose concentration 0.10 μg/mL
  Interferon-α induction: <5 α Reference Units/mL
interferon-α; dose concentration 0.50 μg/mL
  Interferon-α induction: <5 α Reference Units/mL
interferon-α; dose concentration 1.0 μg/mL
  Interferon-α induction: 31 α Reference Units/mL
interferon-α; dose concentration 5.0 μg/mL
  Interferon-α induction: 760 α Reference Units/mL
interferon; oral 0.3 mg/kg, 1 hr
  Interferon induction in mice: <56 Reference Units/mL
interferon; oral 0.3 mg/kg, 2 hr
  Interferon induction in mice: <56 Reference Units/mL
interferon; oral 0.3 mg/kg, 4 hr
  Interferon induction in mice: <56 Reference Units/mL
interferon; oral 1 mg/kg, 1 hr
  Interferon induction in mice: <56 Reference Units/mL
interferon; oral 1 mg/kg, 2 hr
  Interferon induction in mice: 97 Reference Units/mL
interferon; oral 1 mg/kg, 4 hr
  Interferon induction in mice: <56 Reference Units/mL
interferon; oral 3 mg/kg, 1 hr
  Interferon induction in mice: 220 Reference Units/mL
interferon; oral 3 mg/kg, 2 hr
  Interferon induction in mice: 870 Reference Units/mL
interferon; oral 3 mg/kg, 4 hr
  Interferon induction in mice: 160 Reference Units/mL
interferon; oral 10 mg/kg, 1 hr
  Interferon induction in mice: 380 Reference Units/mL
interferon; oral 10 mg/kg, 2 hr
  Interferon induction in mice: 1100 Reference Units/mL
interferon; oral 10 mg/kg, 4 hr
  Interferon induction in mice: 380 Reference Units/mL

## CCOCc1nc2c(N)nc3ccccc3c2n1CCC(C)C.Cl [Example 109, 2-Ethoxymethyl-1-(3-methylbutyl)-1H-imidazo[4,5-c]quinolin-4-amine Hydrochloride]
interferon-α; dose concentration 0.01 μg/mL
  Interferon-α induction: <1.4 α Reference Units/mL
interferon-α; dose concentration 0.05 μg/mL
  Interferon-α induction: 1000 α Reference Units/mL
interferon-α; dose concentration 0.10 μg/mL
  Interferon-α induction: 1000 α Reference Units/mL
interferon-α; dose concentration 0.50 μg/mL
  Interferon-α induction: 97 α Reference Units/mL
interferon-α; dose concentration 1.0 μg/mL
  Interferon-α induction: 83 α Reference Units/mL
interferon-α; dose concentration 5.0 μg/mL
  Interferon-α induction: 78 α Reference Units/mL

## COCc1nc2c(N)nc3ccccc3c2n1CC(C)(C)O [Example 111, 4-Amino-α,α-dimethyl-2-methoxymethyl-1H-imidazo[4,5-c]quinoline-1-ethanol]
interferon-α; dose concentration 0.01 μg/mL
  Interferon-α induction: 190 α Reference Units/mL
interferon-α; dose concentration 0.05 μg/mL
  Interferon-α induction: 65 α Reference Units/mL
interferon-α; dose concentration 0.10 μg/mL
  Interferon-α induction: 65 α Reference Units/mL
interferon-α; dose concentration 0.50 μg/mL
  Interferon-α induction: 49 α Reference Units/mL
interferon-α; dose concentration 1.0 μg/mL
  Interferon-α induction: 55 α Reference Units/mL
interferon-α; dose concentration 5.0 μg/mL
  Interferon-α induction: 61 α Reference Units/mL
